Consider one compound from ChEMBL document CHEMBL1147107, “Safety and pharmacokinetics of brecanavir, a novel human immunodeficiency virus type 1 protease inhibitor, following repeat administration with and without ritonavir in healthy adult subjects” (Antimicrob Agents Chemother, 2007).

What all share (format): ADME, organism-based
Data set [1] in a line: Cmax in healthy human plasma at 800 mg measured on day 1. Further details: dose 800 mg.
A short description of data set [2]: Tmax in healthy human plasma at 800 mg measured on day 1.
Data set [3] in a line: Tmax in healthy human plasma at 800 mg for every 12 hrs measured on day 15.
The nature of data set [4]: Trough concentration in healthy human plasma at 800 mg for every 12 hrs measured on day 15. The note with it: read-out: Cmin.
Data set [5] in a line: Cmax in healthy human plasma at 800 mg for every 12 hrs measured on day 15. Also on record: dose 800 mg.
Data set [6] can be described thus: Apparent oral clearance in healthy human plasma at 800 mg for every 12 hrs measured on day 15.
A short description of data set [7]: AUC (0-tau) in healthy human plasma at 800 mg for every 12 hrs measured on day 15.

On to `Cc1nc(COc2ccc(C[C@H](NC(=O)O[C@H]3CO[C@H]4OCC[C@H]43)[C@H](O)CN(CC(C)C)S(=O)(=O)c3ccc4c(c3)OCO4)cc2)cs1` [BRECANAVIR], for which the Cmax in data set [1] worked out at 3.96 ng/mL; in data set [5] it was 49.2 ng/mL. Also, the Tmax in data set [2] was 2.5 h; in data set [3] it was 3.75 h. Besides, in data set [4], the concentration at 12 h came to 2.6 ng/mL. In addition, the CL/F in data set [6] is 67000 mL/min. The AUC tau at 12 h in data set [7] came out at 199 ng·h/mL.
